In patent publication US20050048539A1, “Methods to monitor molecule conformation and molecule/molecule proximity” (The General Hospital Corporation, priority 2003, published 2005):

Key:
APP and PS1 = assay: Photobleach dequenching FRET assay between APP and PS1; type: cell-based, Chinese hamster
Procedure: Fluorescence Resonance Energy Transfer (FRET) measurements were made using a BioRad1024 confocal microscope mounted on a Nikon Eclipse TE300 inverted Microscope. A krypton-argon laser was used to excite FITC and Cy3 (excitation wavelengths at 488 and 568 nm, respectively). FRET was measured using a method developed for laser scanning confocal microscopy (McLean, P. J. et al., J Biol Chem 275: 8812-8816, 2000; Kinoshita, A. et al., J Neurosci 21: 8354-8361, 2001). The amount of FRET was calculated as a percent increase in donor (FITC) fluorescence intensity after photobleaching the acceptor (Cy3) in a small part of the cell (˜8×8 μm). This ratio was then normalized to the percent change in FITC fluorescence intensity in a non-bleached area of the cell. The percent change in fluorescence intensity was compared to the null hypothesis value of 1.0 by one-group t-tests.
FRET arises when donor and acceptor molecules are <10 nm apart. […] A small area within the cell was photobleached at 568 nm (acceptor only), and FITC fluorescence intensity (at 488 nm) was measured before and after photobleaching.
Treatment with γ-secretase inhibitors (or Asp mutations in PS1) prevents processing of substrates at γ-secretase site. […] This was also true for the D257A PS1 mutation; we observed 25.9±11% (n=8, P<0.05) increase in FITC-fluorescence intensity, compared to a non-FRET control.

[1] = tested on: APP and PS1 (PS1/γ-secretase complex); assay: FLIM assay for PS1 loop-APP C-terminus proximity in CHO cells treated with γ-secretase inhibitors; type: cell-based, Chinese hamster; details: WT PS1 CHO cells; donor PS1 loop-FITC, acceptor APP770-CY3; 4 h with DAPT 500 nM or WPE-III-31C 1 μM; non-FRET control 2600 ± 110, untreated 2290 ± 216
Procedure: (§1) Chinese hamster ovary (CHO) cells stably transfected with APP770 and either wild type PS1 (wt PS1) or Aspartate mutant PS1 (D257A PS1) were grown in OPTI-MEM with 5% fetal bovine serum and appropriate antibiotics (Puromycin or Zeocin, respectively, (Berezovska et al., 2000)).
Cells were fixed and immunostained 24 hrs posttransfection as described previously (Jack, C. et al., Brain Res Mol Brain Res 87: 166-174, 2001). We used a polyclonal C8 antibody (Selkoe, D. et al., Proc Natl Acad Sci USA 85: 7341-7345, 1988) to detect the C-terminus of APP. A monoclonal antibody to the loop region of PS1 (Chemicon, Temecula, Calif.) was used to identify the γ-secretase complex. PS1 N-terminal X81 antibody was a gift from D. Selkoe (Brigham and Women's Hospital, Boston, Mass.); PS1 C-terminal antibody was purchased from R&D Systems, Inc., Minneapolis, Minn.). For FRET/FLIM studies we chose Cy3-labeled goat anti-rabbit as the acceptor fluorophore, and FITC-labeled goat anti-mouse as the donor fluorophore.
Fluorescence Lifetime Imaging Microscopy (FLIM) relies on the observation that fluorescence lifetimes (the time of fluorophore emission after brief excitation, measured in picoseconds) are shorter in the presence of a FRET acceptor. […] We used a high-speed Hamamatsu detector and hardware/software from Becker and Hickl (Berlin, Germany) to measure fluorescence lifetimes on a pixel-by-pixel basis. […]
The following controls were used to establish and validate the FLIM assay: (1) As a negative control, FITC lifetime was measured in the absence of the acceptor. […] (2) As a positive control, FITC lifetime was measured in the presence of an acceptor. […] By contrast, the FITC fluorescence lifetime (FLIM image) within the area where the acceptor was photobleached reverts to a longer lifetime (color-coded as blue), identical to the lifetime of FITC in the absence of an acceptor (as in the negative control, FIG. 7A). […]
If there was no interaction, lifetimes on the order of ˜2600 psec were observed. If FRET was detected, a population with a statistically shorter lifetime (<˜2400 psec) was observed.

Aβ secretion = assay: Aβ production after DAPT treatment (sister cultures); type: cell-based, Chinese hamster
Procedure: as §1
We investigated whether APP and PS1 interactions would still be observed if γ-secretase function was inhibited.

[2] = tested on: full-length APP, BACE1 and APP CTFs; assay: Western blot of full-length APP, BACE1 and APP CTFs in N2a cells transfected with human APP751; type: cell-based, mouse; details: 1 μM DAPT
Procedure: For the Western Blot analysis, the cells were lysed in 1% Triton X-100 and electrophoresed in 10-20% SDS-polyacrylamide Tris-Glycine gels. The immunoblotting was performed using the APP C8 antibody (Selkoe, D. J. et al., Proc. Natl. Acad. Sci. USA 85, 7341-7345, 1988), mouse actin (Sigma-Aldrich) or rabbit BACE1 (Calbiochem), followed by detection with ECL reagent (Perkin Elmer, Boston, Mass.). Bands on films were quantitated (Odyssey software, LI-COR, Nebraska) and the values normalized to actin expression.
We further examined whether NSAIDs lead to a decrease in γ-secretase activity. Inhibition of γ-secretase activity leads to accumulation of C99 and C83 (APP CTFs) and decreased release of AICD. Mouse N2a neuroblastoma cells were transfected with human APP751, and were treated with different NSAIDs and a Western blot was performed for full-length APP and APP CTFs (FIG. 16A). […] Next we asked whether NSAIDs alter generation of AICD and examined the effects of NSAIDs on the ability of APP-Gal4 to be cleaved by γ-secretase, releasing the Gal4-AICD fragment which activates a Gal4-dependent, artificially expressed, luciferase plasmid (Cao, X. et al., Science 293: 115-120, 2001). […]

Compound: C[C@H](NC(=O)Cc1cc(F)cc(F)c1)C(=O)N[C@H](C(=O)OC(C)(C)C)c1ccccc1 [DAPT]
- association of APP with PS1 (photobleach FRET, FIG. 10) (APP and PS1; DAPT-treated cells): does not prevent close association of APP with PS1
- FRET: percent increase in FITC fluorescence intensity after photobleaching Cy3 (APP and PS1; wt PS1/APP770 cells, DAPT treatment, untreated 11.6±3%): 19.8±2%
- FITC Lifetime (psec) mean ± SD [1]: 2416 ± 118 (n = 9) psec
- Aβ secretion (Aβ secretion): significant decrease
- APP CTFs (Western blot) [2]: accumulation of APP CTFs
